Source: ChEMBL document CHEMBL1201862, “PubChem BioAssay data set” (2004)
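Following 48 hours of exposure in 96-well plates, responses at five concentrations were used to interpolate endpoints linearly. GI50 = concentration required for 50% inhibition of growth.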 Activity calls are given as the source filed them. No stated cut-off is given here; in the data, active = GI50 up to about 1.1 µM and inactive = higher.

Legend:
Experiment in all cases: NCI-60 cell line screen, 48 h
A549 = test system: A549
CAKI-1 = test system: CAKI-1
DU-145 = test system: DU-145
HCT-116 = test system: HCT-116
HCT-15 = test system: HCT-15
HOP-62 = test system: HOP-62
HT-29 = test system: HT-29
MDA-MB-231 = test system: MDA-MB-231
Malme-3M = test system: Malme-3M
NCI-H460 = test system: NCI-H460
NCI-H522 = test system: NCI-H522
NCI/ADR-RES = test system: NCI/ADR-RES
OVCAR-4 = test system: OVCAR-4
PC-3 = test system: PC-3
RXF 393 = test system: RXF 393
SK-MEL-28 = test system: SK-MEL-28
SK-MEL-5 = test system: SK-MEL-5
SR = test system: SR
U-251 = test system: U-251
UO-31 = test system: UO-31

Row | SMILES | GI50 (A549) | GI50 (CAKI-1) | GI50 (DU-145) | GI50 (HCT-116) | GI50 (HCT-15) [µM] | GI50 (HOP-62) | GI50 (HT-29) | GI50 (MDA-MB-231) | GI50 (Malme-3M) | GI50 (NCI-H460) | GI50 (NCI-H522) | GI50 (NCI/ADR-RES) | GI50 (OVCAR-4) | GI50 (PC-3) | GI50 (RXF 393) | GI50 (SK-MEL-28) | GI50 (SK-MEL-5) | GI50 (SR) | GI50 (U-251) | GI50 (UO-31)
1 | CCCN1CN(c2ccccc2)C2(CCN(CCCC(=O)c3ccc(F)cc3)CC2)C1=O | 6.61 µM (inactive) | 4.61 µM (inactive) | 1.53 µM (inactive) | 2.18 µM (inactive) | 4.31 | 2.7 µM (inactive) | 0.631 µM (active) | 6.93 µM (inactive) | 14.9 µM (inactive) | 12.7 µM (inactive) | 20.3 µM (inactive) | 4.53 µM (inactive) | 2.48 µM (inactive) | 10.2 µM (inactive) | 16.8 µM (inactive) | 19.2 µM (inactive) | 1.44 µM (inactive) | 16.6 µM (inactive) | 14.7 µM (inactive) | 11.8 µM (inactive)
2 | Nc1cccnc1NCC1(CO)CCCC1 | > 100 µM (inactive) | > 100 µM (inactive) | > 100 µM (inactive) | > 100 µM (inactive) | > 100 | > 100 µM (inactive) | > 100 µM (inactive) | > 100 µM (inactive) | > 100 µM (inactive) | > 100 µM (inactive) | > 100 µM (inactive) | > 100 µM (inactive) | > 100 µM (inactive) | > 100 µM (inactive) | > 100 µM (inactive) | > 100 µM (inactive) | > 100 µM (inactive) | > 100 µM (inactive) | > 100 µM (inactive) | > 100 µM (inactive)
3 | COc1cc(S(=O)(=O)Nc2nc(-c3ccc(/N=C/c4ccccc4O)cc3)cs2)ccc1Cl | 41.3 µM (inactive) | 60.4 µM (inactive) | 69.2 µM (inactive) | 29.4 µM (inactive) | 31.6 | 40.3 µM (inactive) | 44 µM (inactive) | 36.5 µM (inactive) | 40.3 µM (inactive) | 35.3 µM (inactive) | 33.7 µM (inactive) | 50.5 µM (inactive) | 45.6 µM (inactive) | 39.1 µM (inactive) | 34.3 µM (inactive) | 65.2 µM (inactive) | 26 µM (inactive) | 34.7 µM (inactive) | 36.9 µM (inactive) | 44.2 µM (inactive)
4 | O=C(O)CCC(=O)C(=O)O [ALPHA-KETOGLUTARIC ACID] | > 100 µM (inactive) | > 100 µM (inactive) | > 100 µM (inactive) | > 100 µM (inactive) | > 100 | > 100 µM (inactive) | > 100 µM (inactive) | > 100 µM (inactive) | > 100 µM (inactive) | > 100 µM (inactive) | > 100 µM (inactive) | > 100 µM (inactive) | > 100 µM (inactive) | > 100 µM (inactive) | > 100 µM (inactive) | > 100 µM (inactive) | > 100 µM (inactive) | > 100 µM (inactive) | > 100 µM (inactive) | > 100 µM (inactive)
5 | CC[C@]12CCCN3CCc4c(n(c5ccccc45)C(=O)C1)[C@@H]32 [VINBURNINE] | 7.5 µM (inactive) | > 100 µM (inactive) | 19.2 µM (inactive) | 3.86 µM (inactive) | 4.15 | 4.76 µM (inactive) | 3.56 µM (inactive) | 9.35 µM (inactive) | 4.63 µM (inactive) | 3.72 µM (inactive) | 2.32 µM (inactive) | 3.25 µM (inactive) | 18.2 µM (inactive) | 18.2 µM (inactive) | 15.6 µM (inactive) | > 36.5 µM (inactive) | 5.05 µM (inactive) | 1.31 µM (inactive) | 4.88 µM (inactive) | 4.75 µM (inactive)
6 | O=c1cc(CNC2CC3CCC2C3)[nH]c(=O)[nH]1 (centres undefined) | > 100 µM (inactive) | > 100 µM (inactive) | > 100 µM (inactive) | > 100 µM (inactive) | > 100 | > 100 µM (inactive) | > 100 µM (inactive) | > 100 µM (inactive) | > 100 µM (inactive) | > 100 µM (inactive) | > 100 µM (inactive) | > 100 µM (inactive) | > 100 µM (inactive) | > 100 µM (inactive) | > 100 µM (inactive) | > 100 µM (inactive) | > 100 µM (inactive) | > 100 µM (inactive) | > 100 µM (inactive) | > 100 µM (inactive)
7 | Cc1ccc2nc3n(c2c1)C(c1c(F)cccc1F)SC3 (centres undefined) | > 100 µM (inactive) | 19.1 µM (inactive) | > 100 µM (inactive) | > 100 µM (inactive) | > 100 | > 100 µM (inactive) | > 100 µM (inactive) | > 100 µM (inactive) | > 100 µM (inactive) | > 100 µM (inactive) | 55.5 µM (inactive) | > 100 µM (inactive) | > 100 µM (inactive) | > 100 µM (inactive) | > 100 µM (inactive) | > 100 µM (inactive) | > 100 µM (inactive) | > 100 µM (inactive) | > 100 µM (inactive) | > 100 µM (inactive)
8 | CC(=O)OCC1OC(n2c3c(c(-c4ccc(Cl)cc4)c(C#N)c2=S)C(=O)CC(C)(C)C3)C(OC(C)=O)C(OC(C)=O)C1OC(C)=O (centres undefined) | 38 µM (inactive) | 11.4 µM (inactive) | 50.9 µM (inactive) | 19.1 µM (inactive) | 14.2 | 42 µM (inactive) | 15.7 µM (inactive) | 15.2 µM (inactive) | 43.3 µM (inactive) | 33.7 µM (inactive) | 4.94 µM (inactive) | 12 µM (inactive) | 17.8 µM (inactive) | 10.9 µM (inactive) | 7.48 µM (inactive) | 23.6 µM (inactive) | 11.7 µM (inactive) | 4.12 µM (inactive) | 19.1 µM (inactive) | 39.2 µM (inactive)
9 | COc1ccc(N2C(=O)C(=O)N(c3ccc(/N=N\c4ccccc4)cc3)C2=S)cc1 | 20.2 µM (inactive) | 20.2 µM (inactive) | 16 µM (inactive) | 19.3 µM (inactive) | 17.2 | 18.6 µM (inactive) | 18.6 µM (inactive) | 22.8 µM (inactive) | 18.5 µM (inactive) | 18.3 µM (inactive) | 5.37 µM (inactive) | 18.9 µM (inactive) | 18.2 µM (inactive) | 17.6 µM (inactive) | 17.3 µM (inactive) | 23.2 µM (inactive) | 16.7 µM (inactive) | 38 µM (inactive) | 17.1 µM (inactive) | 16.3 µM (inactive)
10 | O=[Se](O)O | 1.15 µM (inactive) | 34.2 µM (inactive) | 1.47 µM (inactive) | 2.36 µM (inactive) | 3.15 | 0.577 µM (active) | 3.17 µM (inactive) | 1 µM (active) | 31.7 µM (inactive) | 0.762 µM (active) | 12.2 µM (inactive) | 4.57 µM (inactive) | 7.06 µM (inactive) | 1.1 µM (active) | 3.76 µM (inactive) | 3.27 µM (inactive) | 2.33 µM (inactive) | 10 µM (inactive) | 0.815 µM (active) | 2.95 µM (inactive)
11 | COc1ccc2nccc(NCCCN3CCN(CCCNc4ccnc5ccc(OC)cc45)CC3)c2c1 | 0.296 µM (active) | 3.69 µM (inactive) | 0.508 µM (active) | 0.221 µM (active) | 11.8 | 0.966 µM (active) | 0.172 µM (active) | 0.357 µM (active) | 0.644 µM (active) | 0.296 µM (active) | 0.0334 µM (active) | 18.2 µM (inactive) | 1.04 µM (active) | 0.44 µM (active) | 1.32 µM (inactive) | 1.09 µM (active) | 1.06 µM (active) | 0.505 µM (active) | 0.232 µM (active) | 8.13 µM (inactive)
12 | Cc1sc2nc(-c3cc([N+](=O)[O-])c(Cl)cc3Cl)c(/C=N/NC(=N)N)n2c1C | 22.9 µM (inactive) | 11.9 µM (inactive) | 14.5 µM (inactive) | 4.15 µM (inactive) | 3.61 | 7.66 µM (inactive) | 3.25 µM (inactive) | 6.61 µM (inactive) | 13.8 µM (inactive) | 6.34 µM (inactive) | 8.47 µM (inactive) | 31.7 µM (inactive) | 2.36 µM (inactive) | 5.69 µM (inactive) | 5.09 µM (inactive) | 2.4 µM (inactive) | 6.3 µM (inactive) | 0.411 µM (active) | 4.02 µM (inactive) | 11.4 µM (inactive)
13 | CC(C)(C)C1CC[C@H](O)[C@H]([C@H](O)CC2CC(=O)N(c3ccccc3)C(=O)C2)C1 (some centres undefined) | > 100 µM (inactive) | > 100 µM (inactive) | > 100 µM (inactive) | > 100 µM (inactive) | > 100 | 74.6 µM (inactive) | > 100 µM (inactive) | > 100 µM (inactive) | > 100 µM (inactive) | 95.9 µM (inactive) | > 100 µM (inactive) | > 100 µM (inactive) | > 100 µM (inactive) | > 100 µM (inactive) | > 100 µM (inactive) | > 100 µM (inactive) | > 100 µM (inactive) | > 100 µM (inactive) | > 100 µM (inactive) | > 100 µM (inactive)
14 | CC1OC(OC2C(O)COC(OC3C(C)OC(OC4C(OC(=O)[C@]56CCC(C)(C)C[C@@H]5C5=CCC7[C@@]8(C)C[C@H](O)[C@H](OC9OC(CO)C(O)C(OC%10OC(CO)C(O)C(O)C%10O)C9O)[C@@](C)(CO)[C@@H]8CC[C@@]7(C)[C@]5(C)CC6)OCC(O)C4O)C(O)C3OC3OCC(O)(CO)C3O)C2O)C(O)C(O)C1O (some centres undefined) | 6.61 µM (inactive) | 3.98 µM (inactive) | 8.28 µM (inactive) | 11.2 µM (inactive) | 7.71 | 9.95 µM (inactive) |  | 8.05 µM (inactive) | 5 µM (inactive) | 12.7 µM (inactive) | 7.96 µM (inactive) | 7.35 µM (inactive) | 7.94 µM (inactive) | 6 µM (inactive) | 7.67 µM (inactive) | 6.24 µM (inactive) | 8.05 µM (inactive) | 6.28 µM (inactive) | 10.4 µM (inactive) | 3.56 µM (inactive)
